Measurements reported in PMC6234871 (mBio, 2018).

Key:
[1] = target: T1, PfHAD2 (HAD2, 6×His-HAD2) (Plasmodium falciparum, UniProt Q8I5F4); assay: EnzChek phosphate release assay (MESG/PNP coupled); type: biochemical; settings: 5 mM substrate, 730 nM enzyme, 20 mM MgCl2, 50 mM Tris-HCl pH 8.0; normalised to D26A mutant
T1 construct: gene PF3D7_1226300; native mass about 33 kDa

[2] = target: T1, PfHAD2 (HAD2, 6×His-HAD2); assay: continuous absorbance at […] nm; type: biochemical; settings: 10 mM pNPP, 1.2 µM enzyme, 5 mM MgCl2, 50 mM Tris-HCl pH 7.5, 37°C

| SMILES | EnzChek phosphate release assay (MESG/PNP coupled) [1] | continuous absorbance at 405 nm [2] |
| --- | --- | --- |
| O=P(O)(O)OC(CO)CO [glycerol 2-phosphate] | PfHAD2 is a phosphatase with activity against small phosphosubstrates, such as glc2P | – |
| O=[N+]([O-])c1ccc(OP(=O)(O)O)cc1 [para-nitrophenyl phosphate] | – | confirmed the phosphatase activity of recombinant PfHAD2 using para-nitrophenyl phosphate (pNPP) |
